Experimental data from ChEMBL document CHEMBL6092154, “Design, synthesis, and evaluation of a novel TRAIL-activated HDAC6 inhibitor for the treatment of pulmonary fibrosis” (Bioorg Med Chem, 2024).
Active and inactive are the calls of the source. The calls are words filed in the database; no cut-off is given here.

Key:
[1] = Toxicity against bleomycin-induced pulmonary fibrosis C57BL/6J mouse model assessed as effect on spleen morphological changes at 25 to 50 mg/kg, ig administered daily via gavage and measured on day 14 by Hematoxylin-Eosin staining based analysis; format: organism-based; conditions: in vivo, po, 336 h, dose 25-50 mg/kg, time 14 day
[2] = target: Histone deacetylase 3 (Homo sapiens, UniProt O15379); assay: Inhibition of HDAC3 (unknown origin) incubated for 30 mins by fluorometric analysis
[3] = Toxicity against silicosis C57BL/6J mouse model assessed as uric acid level in serum at 50 mg/kg, ig administered daily via gavage and measured on day 28; format: organism-based; conditions: in vivo, po, 672 h, time 28 day
[4] = system: Mus musculus; assay: (§1) Anti-pulmonary fibrosis activity in bleomycin-induced idiopathic pulmonary fibrosis C57BL/6J mouse model assessed as decrease in lung damage by measuring decrease in inflammatory cell infiltration in lung at 25 to 50 mg/kg, ig administered daily via gavage and measured on day 14 by Hematoxylin-Eosin staining based analysis; format: functional, organism-based; conditions: dose 25-50 mg/kg, time 14.0 day
[5] = Toxicity against silicosis C57BL/6J mouse model assessed as effect on liver morphological changes at 50 mg/kg, ig administered daily via gavage and measured on day 28 by Hematoxylin-Eosin staining based analysis; format: organism-based; conditions: in vivo, po, 672 h, time 28 day
[6] = system: Mus musculus; assay: as §1, with “collagen deposition” for “inflammatory cell infiltration”, “Sirius red” for “Hematoxylin-Eosin”; format: functional, organism-based; conditions: dose 25-50 mg/kg, time 14.0 day
[7] = system: Mus musculus; assay: as §1, with “collagen deposition” for “inflammatory cell infiltration”; format: functional, organism-based; conditions: dose 25-50 mg/kg, time 14.0 day
[8] = target: Histone deacetylase 1 (Homo sapiens) (UniProt Q13547); assay: Inhibition of HDAC1 (unknown origin) at 1 uM incubated for 30 mins by fluorometric analysis
[9] = target: T1, Protein deacetylase HDAC6 (Mus musculus) (UniProt Q9Z2V5); assay: In vivo inhibition of HDAC6 in bleomycin-induced idiopathic pulmonary fibrosis C57BL/6J mouse model assessed as increase in acetylated histone H4 level in lung at 25 mg/kg, ig administered via gavage and measured on day 14 by western blot analysis; format: functional, organism-based; conditions: time 14.0 day
T1 sequence (whole entry): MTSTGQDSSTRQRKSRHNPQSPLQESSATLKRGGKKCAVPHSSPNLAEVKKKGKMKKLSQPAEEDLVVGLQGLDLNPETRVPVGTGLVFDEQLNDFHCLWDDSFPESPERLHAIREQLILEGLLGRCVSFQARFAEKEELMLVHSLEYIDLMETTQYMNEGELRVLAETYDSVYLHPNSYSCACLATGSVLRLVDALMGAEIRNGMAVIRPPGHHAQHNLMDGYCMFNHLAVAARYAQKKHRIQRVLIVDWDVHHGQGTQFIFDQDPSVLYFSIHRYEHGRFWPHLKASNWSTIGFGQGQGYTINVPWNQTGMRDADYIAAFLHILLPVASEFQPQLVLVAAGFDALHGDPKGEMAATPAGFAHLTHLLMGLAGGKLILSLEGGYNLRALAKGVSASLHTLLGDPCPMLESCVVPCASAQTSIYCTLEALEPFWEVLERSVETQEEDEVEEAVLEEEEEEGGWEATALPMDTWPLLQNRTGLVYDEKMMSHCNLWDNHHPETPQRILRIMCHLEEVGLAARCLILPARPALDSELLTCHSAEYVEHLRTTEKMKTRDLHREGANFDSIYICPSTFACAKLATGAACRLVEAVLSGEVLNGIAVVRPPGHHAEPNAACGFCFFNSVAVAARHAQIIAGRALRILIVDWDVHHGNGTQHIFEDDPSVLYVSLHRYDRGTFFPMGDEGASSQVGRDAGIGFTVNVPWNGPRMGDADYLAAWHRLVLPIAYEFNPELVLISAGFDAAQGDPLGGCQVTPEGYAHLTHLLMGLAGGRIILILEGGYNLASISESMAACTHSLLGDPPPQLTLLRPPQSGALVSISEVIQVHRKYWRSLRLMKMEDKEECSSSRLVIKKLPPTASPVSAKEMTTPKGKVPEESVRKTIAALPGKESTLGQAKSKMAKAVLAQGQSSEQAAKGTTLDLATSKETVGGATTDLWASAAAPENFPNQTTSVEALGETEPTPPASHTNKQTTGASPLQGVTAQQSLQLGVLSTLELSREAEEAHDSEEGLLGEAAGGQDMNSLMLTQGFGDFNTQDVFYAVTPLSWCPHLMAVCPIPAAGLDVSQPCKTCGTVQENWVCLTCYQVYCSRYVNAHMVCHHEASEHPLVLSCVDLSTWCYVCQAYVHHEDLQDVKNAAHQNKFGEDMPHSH

Chain of Histone deacetylase 1 (Homo sapiens) (Q13547 whole entry): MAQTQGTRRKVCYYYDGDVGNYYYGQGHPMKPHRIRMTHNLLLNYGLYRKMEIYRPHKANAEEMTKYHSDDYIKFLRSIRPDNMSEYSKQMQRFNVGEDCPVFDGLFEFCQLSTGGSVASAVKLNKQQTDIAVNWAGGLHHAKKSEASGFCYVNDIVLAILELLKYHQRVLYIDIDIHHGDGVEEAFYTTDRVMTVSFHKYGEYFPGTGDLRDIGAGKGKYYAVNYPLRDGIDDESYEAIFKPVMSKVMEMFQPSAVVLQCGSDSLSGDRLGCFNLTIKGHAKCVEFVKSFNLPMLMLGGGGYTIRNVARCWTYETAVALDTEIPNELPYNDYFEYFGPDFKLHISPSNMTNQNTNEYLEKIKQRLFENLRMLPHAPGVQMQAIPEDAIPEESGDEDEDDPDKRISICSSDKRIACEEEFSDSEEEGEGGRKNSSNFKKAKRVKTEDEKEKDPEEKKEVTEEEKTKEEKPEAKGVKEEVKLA
Chain of Histone deacetylase 3 (O15379 whole entry): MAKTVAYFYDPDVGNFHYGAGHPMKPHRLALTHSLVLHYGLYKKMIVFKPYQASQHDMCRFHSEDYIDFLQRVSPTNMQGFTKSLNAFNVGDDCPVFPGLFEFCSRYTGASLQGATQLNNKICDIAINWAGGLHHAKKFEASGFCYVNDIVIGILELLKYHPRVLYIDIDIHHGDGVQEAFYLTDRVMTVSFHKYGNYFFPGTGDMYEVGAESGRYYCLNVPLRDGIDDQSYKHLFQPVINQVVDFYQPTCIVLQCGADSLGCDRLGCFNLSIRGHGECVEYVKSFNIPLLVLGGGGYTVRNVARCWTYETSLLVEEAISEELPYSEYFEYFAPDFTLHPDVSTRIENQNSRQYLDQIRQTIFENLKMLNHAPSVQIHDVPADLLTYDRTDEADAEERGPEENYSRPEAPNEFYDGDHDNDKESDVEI

- IC50 [2]: 1140 nM
- inhibition [8]: 56.1%
- inhibition [9]: inactive
Structure (SMILES): O=C(NO)c1ccc(CN2C(=O)C3=C(CCN(Cc4cccc(Cl)c4)C3)N3CCN=C23)cc1
- Activity [1]: Non-toxic
- Activity [3]: Non-toxic
- Activity [4]: Active
- Activity [5]: Non-toxic
- Activity [6]: Active
- Activity [7]: Active
